# Test results as given in patent publication US20160362416A1, “ANTIVIRAL COMPOUNDS” (Gilead Sciences, Inc., priority 2012, published 2016).
# What was measured:
# [1] = tested on: Q30E in genotype 1a NS5A replicon; assay: Resistance mutant replicon assay, genotype 1a NS5A Q30E; format: cell-based, HCV; settings: Hepatitis C virus, read-out: 1a Q30E (nM)
# Outline: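 Renilla luciferase signal after 72 h compound exposure gave EC50 via non-linear regression. Cells were Huh-7-derived cured-51 transiently transfected with replicon RNA carrying the NS5A mutation introduced by site-directed mutagenesis into 1a or 1b Pi-RLuc replicons.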
# [2] = tested on: NS5A chimeric genotype 1b Con1 replicon with genotype 4a ED43 strain NS5A gene; assay: HCV genotype 4a NS5A chimeric replicon assay; format: cell-based; settings: Hepatitis C virus, 72 h, read-out: 4a (s) (nM)
# [3] = tested on: NS5A chimeric genotype 2a JFH-1 replicon with genotype 2b MD2b-1 strain NS5A gene (M31); assay: HCV genotype 2b NS5A chimeric replicon assay, stable (s); format: cell-based; settings: Hepatitis C virus, 72 h, read-out: 2b (s) (nM)
# [4] = tested on: stable HCV 1b RLuc replicon cells (genotype 1b Con1 replicon); assay: HCV genotype 1b RLuc replicon reporter assay; format: cell-based; settings: Hepatitis C virus; stable genotype 1b Con1 RLuc replicon cells, 72 hours
# Outline: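 Chimeric replicons for 3a and 4a use a Pi-RLuc reporter and were transiently transfected into Huh-Lunet cells; the 2b chimera (RLuc-Neo) was likewise transient in Huh-Lunet; 1b cells are stable. Cells were exposed to 3-fold serial compound dilutions for 72 h, then lysed. EC50s came from non-linear regression of Renilla luciferase signal.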
# [5] = tested on: Q30R in genotype 1a NS5A replicon; assay: Resistance mutant replicon assay, genotype 1a NS5A Q30R; format: cell-based, HCV; settings: Hepatitis C virus, read-out: 1a Q30R (nM)
# Description: Evaluation of cell-based anti-HCV activity: Antiviral potency (EC50) was determined using a Renilla luciferase (RLuc)-based HCV replicon reporter assay. To perform the assay for genotype 1 and 2a JFH-1, stable HCV 1a RLuc replicon cells (harboring a dicistronic genotype 1a H77 replicon that encodes a RLuc reporter), stable HCV lb RLuc replicon cells (harboring a dicistronic genotype 1b Conl replicon that encodes a RLuc reporter), or stable HCV 2a JFH-1 Rluc replicon cells (harboring a dicistronic genotype 2a JFH-1 replicon that encodes a RLuc reporter; with L31 present in NS5A) were dispensed into 384-well plates for EC50 assays. To perform the assay for genotype 2a (with M31 present in NS5A) or 2b, NS5A chimeric genotype 2a JFH-1 replicons that encodes a RLuc-Neo reporter and either genotype 2a J6 strain NS5A gene or genotype 2b MD2b-1 strain NS5A gene (both with M31 present) respectively, were either transiently transfected (t) into Huh-Lunet cells or were established as stably replicating replicon cells (s) is provided. Either cells were dispensed into 384-well plates for EC50 assays. To perform the assay for genotype 3 and 4, NS5A chimeric genotype 1b Conl replicons that encodes a Pi-RLuc reporter and either genotype 3a S52 strain NS5A gene or genotype 4a ED43 strain NS5A gene respectively, were transiently transfected (t) into Huh-Lunet cells, which were subsequently dispensed into 384-well plates. Compounds were dissolved in DMSO at a concentration of 10 mM and diluted in DMSO either manually or using an automated pipeting instrument. Serially 3-fold diluted compounds were either manually mixed with cell culture media and added to the seeded cells or directly added to the cells using an automated instrument. DMSO was used as a negative (solvent; no inhibition) control, and the protease inhibitor ITMN-191 was included at a concentration >100×EC50 as a positive control. 72 hours later, cells were lysed and Renilla luciferase activity quantified as recommended by the manufacturer (Promega-Madison, Wis.). Non-linear regression was performed to calculate EC50 values.
# To determine the antiviral potency (EC50) against resistance mutants, resistance mutations, including M28T, Q30R, Q30H, Q30E, L31M, Y93C, Y93H, and Y93N in genotype 1a NS5A, Y93H and L31V/Y93H in genotype 1b NS5A, and Y93H for in genotype 3a NS5A, were introduced individually into either 1a Pi-Rluc or 1b Pi-Rluc replicons by site directed mutagenesis. Replicon RNA of each resistant mutant was transiently transfected into Huh-7-derived cured-51 cells and antiviral potency was determined on these transfected cells as described above.
SMILES,EC50 [1] [nM],EC50 [2] [nM],EC50 [3] [nM],EC50 [4] [nM],EC50 [5] [nM]
"COC(=O)N[C@H](C(=O)N1[C@@H](C)CC[C@H]1c1ncc(-c2ccc3c(c2)COc2cc4c(ccc5nc([C@@H]6CC[C@H](C)N6C(=O)[C@@H](NC(=O)OC)C6CC(C)O[C@H](C)C6)[nH]c54)cc2-3)[nH]1)C(C)C (stereo in doubt) [Example AQ, Methyl {(2S)-1-[(2S,5S)-2-(5-{2-[(2S,5S)-1-{(2S)-2-[(2R,6R)-2,6-dimethyltetrahydro-2H-pyran-4-yl]-2-[(methoxycarbonyl)amino]acetyl}-5-methylpyrrolidin-2-yl]-1,11-dihydroisochromeno[4′,3′:6,7]naphtho[1,2-d]imidazol-9-yl}-1H-imidazol-2-yl)-5-methylpyrrolidin-1-yl]-3-methyl-1-oxobutan-2-yl}carbamate]",0.074,0.012,0.032,0.029,–
"CC[C@H]1CC[C@@H](c2nc3ccc4cc5c(cc4c3[nH]2)OCc2cc(-c3cnc([C@@H]4CC[C@H](C)N4C(=O)[C@@H](NC(=O)OC)C(C)C)[nH]3)ccc2-5)N1C(=O)[C@@H](NC(=O)OC)C1CCOCC1 [Comp 3, reference compound]",0.526,0.014,0.095,0.026,–
"CC[C@H](C)[C@H](NC(=O)OC)C(=O)N1[C@@H](C)CC[C@H]1c1ncc(-c2ccc3c(c2)COc2cc4c(ccc5nc([C@@H]6CC[C@H](C)N6C(=O)[C@@H](NC(=O)OC)C6CCOCC6)[nH]c54)cc2-3)[nH]1 [Comp 4, reference compound]",0.432,0.021,0.074,0.028,–
"CC[C@H](C)[C@H](NC(=O)OC)C(=O)N1[C@@H](C)CC[C@H]1c1nc2ccc3cc4c(cc3c2[nH]1)OCc1cc(-c2cnc([C@@H]3CC[C@H](C)N3C(=O)[C@@H](NC(=O)OC)C3CCOCC3)[nH]2)ccc1-4 [Comp 12, reference compound]",–,17.7,0.07,0.022,1.28
"CC[C@H](C)[C@H](NC(=O)OC)C(=O)N1[C@@H](C)CC[C@H]1c1ncc(-c2ccc3c(c2)COc2cc4c(ccc5nc([C@@H]6CC[C@H](C)N6C(=O)[C@@H](NC(=O)OC)C6C[C@@H](C)O[C@H](C)C6)[nH]c54)cc2-3)[nH]1 (stereo partly drawn) [Example AA, Methyl {(2S,3S)-1-[(2S,5S)-2-(5-{2-[(2S,5S)-1-{(2S)-2-[(2R,6R)-2,6-dimethyltetrahydro-2H-pyran-4-yl]-2-[(methoxycarbonyl)amino]acetyl}-5-methylpyrrolidin-2-yl]-1,11-dihydroisochromeno[4′,3′:6,7]naphtho[1,2-d]imidazol-9-yl}-1H-imidazol-2-yl)-5-methylpyrrolidin-1-yl]-3-methyl-1-oxopentan-2-yl}carbamate]",0.145,0.008,0.029,0.017,–
"COC(=O)N[C@H](C(=O)N1[C@@H](C)CC[C@H]1c1ncc(-c2ccc3c(c2)COc2cc4c(ccc5nc([C@@H]6CC[C@H](C)N6C(=O)[C@@H](NC(=O)OC)[C@H]6C[C@@H](C)O[C@@H](C)C6)[nH]c54)cc2-3)[nH]1)C(C)C [Example AM, Methyl {(2S)-1-[(2S,5S)-2-(5-{2-[(2S,5S)-1-{(2S)-2-[(2R,6S)-2,6-dimethyltetrahydro-2H-pyran-4-yl]-2-[(methoxycarbonyl)amino]acetyl}-5-methylpyrrolidin-2-yl]-1,11-dihydroisochromeno[4′,3′:6,7]naphtho[1,2-d]imidazol-9-yl}-1H-imidazol-2-yl)-5-methylpyrrolidin-1-yl]-3-methyl-1-oxobutan-2-yl}carbamate]",1.21,0.01,0.023,0.014,–
"COC(=O)N[C@H](C(=O)N1[C@@H](C)CC[C@H]1c1nc2ccc3cc4c(cc3c2[nH]1)OCc1cc(-c2cnc([C@@H]3CC[C@H](C)N3C(=O)[C@@H](NC(=O)OC)[C@H]3C[C@@H](C)O[C@@H](C)C3)[nH]2)ccc1-4)C(C)C [Example AO, Methyl {(2S)-1-[(2S,5S)-2-(9-{2-[(2S,5S)-1-{(2S)-2-[(2R,6S)-2,6-dimethyltetrahydro-2H-pyran-4-yl]-2-[(methoxycarbonyl)amino]acetyl}-5-methylpyrrolidin-2-yl]-1H-imidazol-5-yl}-1,11-dihydroisochromeno[4′,3′:6,7]naphtho[1,2-d]imidazol-2-yl)-5-methylpyrrolidin-1-yl]-3-methyl-1-oxobutan-2-yl}carbamate]",1.78,0.018,0.045,0.015,–
COC(=O)N[C@H](C(=O)N1[C@@H](C)CC[C@H]1c1nc2ccc3cc4c(cc3c2[nH]1)OCc1cc(-c2cnc([C@@H]3CC[C@H](C)N3C(=O)[C@@H](NC(=O)OC)C3C[C@@H](C)O[C@H](C)C3)[nH]2)ccc1-4)C(C)C (stereo partly drawn) [Example AS],0.115,0.024,0.064,0.045,–
"COC(=O)N[C@H](C(=O)N1[C@@H](C)CC[C@H]1c1ncc(-c2ccc3c(c2)COc2cc4c(ccc5nc([C@@H]6CC[C@H](C)N6C(=O)[C@@H](NC(=O)OC)C6C[C@@H](C)O[C@H](C)C6)[nH]c54)cc2-3)[nH]1)C1C[C@@H](C)O[C@H](C)C1 (stereo partly drawn) [Example AU, Methyl {(1S)-1-[(2R,6R)-2,6-dimethyltetrahydro-2H-pyran-4-yl]-2-[(2S,5S)-2-(5-{2-[(2S,5S)-1-{(2S)-2-[(2R,6R)-2,6-dimethyltetrahydro-2H-pyran-4-yl]-2-[(methoxycarbonyl)amino]acetyl}-5-methylpyrrolidin-2-yl]-1,11-dihydroisochromeno[4′,3′:6,7]naphtho[1,2-d]imidazol-9-yl}-1H-imidazol-2-yl)-5-methylpyrrolidin-1-yl]-2-oxoethyl}carbamate]",0.042,0.017,0.023,0.039,–
"COC[C@H]1C[C@@H](c2ncc(-c3ccc4c(c3)COc3cc5c(ccc6nc([C@@H]7CC[C@H](C)N7C(=O)[C@@H](NC(=O)OC)C7C[C@@H](C)O[C@H](C)C7)[nH]c65)cc3-4)[nH]2)N(C(=O)[C@@H](NC(=O)OC)C2C[C@@H](C)O[C@H](C)C2)C1 (stereo partly drawn) [Example BH, Methyl {(1S)-1-[(2R,6R)-2,6-dimethyltetrahydro-2H-pyran-4-yl]-2-[(2S,5S)-2-(9-{2-[(2S,4S)-1-{(2S)-2-[(2R,6R)-2,6-dimethyltetrahydro-2H-pyran-4-yl]-2-[(methoxycarbonyl)amino]acetyl}-4-(methoxymethyl)pyrrolidin-2-yl]-1H-imidazol-5-yl}-1,11-dihydroisochromeno[4′,3′:6,7]naphtho[1,2-d]imidazol-2-yl)-5-methylpyrrolidin-1-yl]-2-oxoethyl}carbamate]",–,0.024,0.027,0.118,–
